Reference: patent US20250319172A1, “ANTICANCER VACCINE COMPOSITION COMPRISING HSP90 ANTIGENIC PEPTIDE AND USE THEREOF” (ASTON SCI. INC., priority 2021, published 2025)

System: HSP90 antigenic peptide-specific IFN-γ production in spleen cells
Assay: IFN-γ ELISpot of splenocytes after test vaccination (Th1 immune response), Example 1
Type: in vivo, C57BL/6 mice
Conditions: antigen HSP90 peptide of SEQ ID NO: 1; s.c. three times every 10 days; splenocytes 10 days after last inoculation; FIG. 1A
Protocol: To analyze the efficacy of antigenic peptides selected from HSP90 (see Table 1) and various adjuvants and liposomes, test vaccines were prepared with the compositions in Table 2 and Table 3. In the case of G6 and G7 formulations, since a liposome is included in the formulations, the drug release rate is slowed, and in this regard, the amount of antigenic peptide was reduced to 20% when preparing the test vaccine. The prepared test vaccine G to G7 formulations were immunized using C57BL/B6 mice (female, 7 weeks old), 4 mice per group. […]
The test vaccine was inoculated with each vaccine formulation by subcutaneous injection three times every 10 days for 4 mice in each group, and splenocytes were isolated from the spleens of mice sacrificed 10 days after the last inoculation, the specific response to each HSP90 antigenic peptide was measured through the ELISpot method for IFN-γ or IL-10 stimulated by the HSP90 antigenic peptide (stimulant) of SEQ ID NO: 1 or SEQ ID NO: 2 according to the previously known method by Disis et al. (J Clin Oncol. 2009 Oct. 1; 27 (28): 4685-92).
If HSP90 antigenic peptide-specific IFN-γ production increased in spleen cells measured by the ELISpot method after test vaccination, the Th1 immune response was considered activated, and if the HSP90 antigenic peptide-specific IL-10 production increased, the Th2 immune response was considered activated.

## LYVRRVFIMDNCEEL [SEQ ID NO: 1, HSP90 antigenic peptide, region p485-499 of HSP90]
  HSP90-specific Th1 immune response (IFN-γ ELISpot): effectively induces HSP90-specific T cell immune response
